Experimental findings from US7348347B2, “Substituted 4,5,6,7-tetrahydrobenzthiazol-2-ylamine compounds” (Gruenenthal GmbH, priority 2004, dated 2008) are described below.

What is called inhibition is the relative decrease from the control value, in per cent.

For experiment [1], the target named is T1, NA transporter (Rattus norvegicus, UniProt Q63380).
T1 construct: from tissue; host or cells: rat brain synaptosomes (P2 fraction) from hypothalamus
Kind of experiment: Inhibition of noradrenaline uptake in rat brain synaptosomes. In kind it is biochemical. Particulars: 10 μM, rat synaptosomes (hypothalamus), [3H]-NA; for inhibition at 10 µM: read-out: % Inhibition of NA uptake [10 μM]. The method, then: II. […] For in vitro studies, synaptosomes of rat brain areas are freshly isolated, as described in the article “The isolation of nerve endings from brain” by E. G. Gray and […]. Anatomy 96, pages 79-88, 1962. The relevant literature reference is enclosed herein by reference and is to be regarded as part of the disclosure. […] The homogenate is centrifuged at 4° C. for 10 minutes at 1000 g. […] The respective uptake was measured in a 96 well microtiter plate. The volume was 250 μL and the incubation was carried out at room temperature (ca 20-25° C.) under a blanket of oxygen. […] The 96 samples through were then filtered through a Unifilter GF/B® microtiter plate (Packard) and washed with 200 mL of incubated buffer with the aid of a “Brabdel Cell-Harvester MPXRI 96T”. The Unifilter GF/B plate was dried at 55° C. over a period of 1 h. The plate was then sealed with a back seal® (Packard) and there were then added 35 μL of scintillant fluid per well (Ultima Gold, Packard). Following sealing with a top seal® (Packard) and following adjustment of the equilibrium (approximately over a period of 5 h), the radioactivity is determined in a 1450 Microbeta® (Wallac). […] The amount of protein used in the above determination corresponded to the values known from the literature, such as is described in “Protein measurement with the folin phenol reagent”, Lowry et al., J. Biol. Chem., 193, 265-275, 1951. A detailed description of the method is disclosed in the literature, for example, in […], and B. […] The relevant literature references are incorporated herein by reference and are to be regarded as part of the disclosure.

Experiment [2] concerns the target T2, 5-HT uptake (Rattus norvegicus, UniProt P31652).
T2 construct: from tissue; host or cells: rat brain synaptosomes (P2 fraction) from marrow (medulla) and pons
The experiment is described as follows: Inhibition of 5-HT uptake in rat brain synaptosomes. The class given is biochemical. Particulars: rat synaptosomes (medulla and pons), [3H]-5-HT. The method, then: The relevant literature reference is enclosed herein by reference and is to be regarded as part of the disclosure.
The homogenate is centrifuged at 4° C. for 10 minutes at 1000 g. Following subsequent centrifugation at 17,000 g for 55 minutes, the synaptosomes (P2 fraction) are obtained, which are then resuspended in 0.32 M […] (0.5 mL/100 mg of the original weight).
The respective uptake was measured in a 96 well microtiter plate. The volume was 250 μL and the incubation was carried out at room temperature (ca 20-25° C.) under a blanket of oxygen.
The 96 samples through were then filtered through a Unifilter GF/B® microtiter plate (Packard) and washed with 200 mL of incubated buffer with the aid of a “Brabdel Cell-Harvester MPXRI 96T”. The Unifilter GF/B plate was dried at 55° C. over a period of 1 h. The plate was then sealed with a back seal® (Packard) and there were then added 35 μL of scintillant fluid per well (Ultima Gold, Packard).
A detailed description of the method is disclosed in the literature, for example, in M. Ch.

T2 sequence (P31652 whole entry): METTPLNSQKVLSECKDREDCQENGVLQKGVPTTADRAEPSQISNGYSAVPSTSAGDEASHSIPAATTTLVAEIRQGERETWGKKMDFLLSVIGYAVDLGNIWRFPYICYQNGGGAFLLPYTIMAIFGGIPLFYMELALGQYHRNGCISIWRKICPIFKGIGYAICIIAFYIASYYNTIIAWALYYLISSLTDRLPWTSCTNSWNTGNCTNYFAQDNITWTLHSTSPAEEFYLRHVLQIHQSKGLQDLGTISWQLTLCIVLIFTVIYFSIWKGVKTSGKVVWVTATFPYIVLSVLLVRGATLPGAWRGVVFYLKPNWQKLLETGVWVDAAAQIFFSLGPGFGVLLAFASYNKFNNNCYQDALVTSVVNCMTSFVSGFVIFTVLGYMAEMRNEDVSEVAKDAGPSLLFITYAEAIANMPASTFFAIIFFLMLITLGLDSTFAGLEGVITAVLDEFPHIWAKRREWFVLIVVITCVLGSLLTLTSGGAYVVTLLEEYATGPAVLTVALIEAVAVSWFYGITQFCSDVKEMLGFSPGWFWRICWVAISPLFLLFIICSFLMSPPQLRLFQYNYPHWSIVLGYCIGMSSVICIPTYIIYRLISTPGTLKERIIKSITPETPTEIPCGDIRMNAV
T1 sequence (Q63380 1-617): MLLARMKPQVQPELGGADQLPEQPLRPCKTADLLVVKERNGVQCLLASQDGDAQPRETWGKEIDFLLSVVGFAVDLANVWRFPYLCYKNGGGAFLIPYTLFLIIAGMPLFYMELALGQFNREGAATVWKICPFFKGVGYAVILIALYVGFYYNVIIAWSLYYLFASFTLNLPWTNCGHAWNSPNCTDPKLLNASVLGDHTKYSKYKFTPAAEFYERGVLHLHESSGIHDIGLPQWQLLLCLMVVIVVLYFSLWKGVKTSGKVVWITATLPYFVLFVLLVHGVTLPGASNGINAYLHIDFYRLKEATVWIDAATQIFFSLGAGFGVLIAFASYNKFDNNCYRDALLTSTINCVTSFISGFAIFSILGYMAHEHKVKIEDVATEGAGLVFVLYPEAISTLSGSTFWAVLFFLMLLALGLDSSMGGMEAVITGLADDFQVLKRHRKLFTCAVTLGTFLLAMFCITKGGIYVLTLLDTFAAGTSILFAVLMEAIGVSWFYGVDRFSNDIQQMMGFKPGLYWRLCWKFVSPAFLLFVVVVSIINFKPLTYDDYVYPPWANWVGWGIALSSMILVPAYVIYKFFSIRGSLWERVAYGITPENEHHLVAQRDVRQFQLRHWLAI

For the compound `O=C(C=Cc1ccco1)Nc1nc2c(s1)CCCC2C(=O)N1CCN(Cc2ccsc2)CC1` (stereo not shown) [Example 11, 3-Furan-2-yl-N-[4-(4-thiophen-3-ylmethylpiperazin-1-carbonyl)-4,5,6,7-tetrahydrobenzthiazol-2-yl]acrylamide], the inhibition at 10 µM in experiment [1] stood at 57%.
With `CC(C(=O)Nc1nc2c(s1)CCCC2C(=O)NC1CCN(Cc2ccc(Oc3ccccc3)cc2)C1)c1ccccc1` (stereo not shown) [Example 15, 2-(2-Phenylpropionylamino)-4,5,6,7-tetrahydrobenzthiazol-4-carboxylic acid[1-(4-phenoxybenzyl)pyrrolidin-3-yl]amide], the “% Inhibition of NA uptake [10 μM]” value in experiment [1] came out at 91%.
For `O=C(Nc1nc2c(s1)CCCC2C(=O)NCCN1CCCCCC1)c1ccoc1` (stereo not shown) [Example 16, 2-[(Furan-3-carbonyl)amino]-4,5,6,7-tetrahydrobenzthiazol-4-carboxylic acid (2-azepan-1-ylethyl)amide], in experiment [1], the inhibition at 10 µM turned out to be 88%.
For the compound `CC(C(=O)Nc1nc2c(s1)CCCC2C(=O)NCCN(C)C)c1ccccc1` (stereo not shown) [Example 19, 2-(2-Phenylpropionylamino)-4,5,6,7-tetrahydrobenzthiazol-4-carboxylic acid (2-dimethylaminoethyl)amide], the inhibition at 10 µM in experiment [1] came out at 71%.
For `CC(C(=O)Nc1nc2c(s1)CCCC2C(=O)NCC1CCN(Cc2ccccc2OCc2ccccc2)C1)c1ccccc1` (stereo not shown) [Example 36, 2-(2-Phenylpropionylamino)-4,5,6,7-tetrahydrobenzthiazol-4-carboxylic acid[1-(2-benzyloxybenzyl)pyrrolidin-3-yl]methylamide], the “% Inhibition of NA uptake [10 μM]” value in experiment [1] was found to be 62%.
As to `CCN(CC)CCNC(=O)C1CCCc2sc(NC(=O)CCc3ccccc3)nc21` (stereo not shown) [Example 38, 2-(3-Phenylpropionylamino)-4,5,6,7-tetrahydrobenzthiazol-4-carboxylic acid (2-diethylaminoethyl)amide], the inhibition at 10 µM in experiment [1] was 42%.
`N#Cc1ccccc1N1CCN(C(=O)C2CCCc3sc(NC(=O)c4ccco4)nc32)CC1` (stereo not shown) [Example 47, Furan-2-carboxylic acid{4-[4-(2-cyan-phenyl)piperazin-1-carbonyl]-4,5,6,7-tetrahydrobenzthiazol-2-yl]-amide]: the “% Inhibition of NA uptake [10 μM]” value in experiment [1] amounted to 47%.
Same read-out and setting: under `CCCCCC(=O)Nc1nc2c(s1)CCCC2C(=O)N1CCN(c2ccccc2F)CC1` (stereo not shown) [Example 52, Hexanoic acid{4-[4-(2-fluorophenyl)piperazin-1-carbonyl]-4,5,6,7-tetrahydrobenzthiazol-2-yl}amide] stands 72%.
As to `CN(C(=O)C1CCCc2sc(NC(=O)COc3ccccc3)nc21)C1CCN(Cc2ccccc2C(F)(F)F)C1` (stereo not shown) [Example 54, 2-(2-Phenoxyacetylamino)-4,5,6,7-tetrahydrobenzthiazol-4-carboxylic acid methyl-[1-(2-trifluoromethylbenzyl)pyrrolidin-3-yl]amide], in experiment [1], the inhibition at 10 µM stood at 44%.
Same read-out and setting: under `COc1ccccc1CC(=O)Nc1nc2c(s1)CCCC2C(=O)NCC1CCN(Cc2cc3ccccc3o2)C1` (stereo not shown) [Example 56, 2-[2-(2-Methoxyphenyl)acetylamino]-4,5,6,7-tetrahydrobenzthiazol-4-carboxylic acid (1-benzofuran-2-ylmethylpyrrolidin-3-yl)methylamide] stands 49%; under `CN(C)c1ccc(CNC(=O)C2CCCc3sc(NC(=O)c4ccco4)nc32)cc1` (stereo not shown) [Example 58, 2-[(Furan-2-carbonyl)amino]-4,5,6,7-tetrahydrobenzthiazol-4-carboxylic acid 4-dimethylaminobenzylamide], 72%.
For the compound `CCCCCC(=O)Nc1nc2c(s1)CCCC2C(=O)N1CCN(Cc2ccc(OC)c(F)c2)CC1` (stereo not shown) [Example 59, Hexanoic acid{4-[4-(3-fluoro-4-methoxybenzyl)piperazin-1-carbonyl]-4,5,6,7-tetrahydrobenzthiazol-2-yl}amide], the “% Inhibition of 5-HT uptake [10 μM]” value in experiment [2] is reported as 46%.
Regarding `O=C(Cc1cc(F)cc(F)c1)Nc1nc2c(s1)CCCC2C(=O)NCC1CCN(Cc2c(Cl)cccc2Cl)C1` (stereo not shown) [Example 62, 2-[2-(3,5-Difluorophenyl)acetylamino]-4,5,6,7-tetrahydrobenzthiazol-4-carboxylic acid[1-(2,6-dichlorobenzyl)pyrrolidin-3-yl]methylamide], in experiment [2], the “% Inhibition of 5-HT uptake [10 μM]” value was determined as 53%.
On the same count and under the same terms, under `CCCCCC(=O)Nc1nc2c(s1)CCCC2C(=O)N1CCN(Cc2cc3ccccc3o2)CC1` (stereo not shown) [Example 65, Hexanoic acid[4-(4-benzofuran-2-ylmethylpiperazin-1-carbonyl)-4,5,6,7-tetrahydrobenzthiazol-2-yl]amide] stands 44%.
The compound `CN(CCCNC(=O)C1CCCc2sc(NC(=O)CC3CCCCC3)nc21)c1ccccc1` (stereo not shown) [Example 68, 2-(2-Cyclohexylacetylamino)-4,5,6,7-tetrahydrobenzthiazol-4-carboxylic acid [3-(methylphenyl-amino)propyl]amide] registered an inhibition at 10 µM in experiment [2] of 84%.
For the compound `CCOc1ccccc1C(=O)Nc1nc2c(s1)CCCC2C(=O)NCCCN(C)c1ccccc1` (stereo not shown) [Example 69, 2-(2-Ethoxybenzoylamino)-4,5,6,7-tetrahydrobenzthiazol-4-carboxylic acid[3-(methylphenyl-amino)propyl]amide], the “% Inhibition of 5-HT uptake [10 μM]” value in experiment [2] amounted to 80%.
In experiment [2], `O=C(CCc1ccccc1)Nc1nc2c(s1)CCCC2C(=O)N1CCN(c2ccc(C(F)(F)F)cn2)CC1` (stereo not shown) [Example 70, 3-Phenyl-N-{4-[4-(5-trifluoromethylpyridin-2-yl)piperazin-1-carbonyl]-4,5,6,7-tetrahydrobenzthiazol-2-yl}propionamide] came in with an inhibition at 10 µM of 44%.
Same read-out and setting: under `O=C(Cc1cc(F)cc(F)c1)Nc1nc2c(s1)CCCC2C(=O)N1CCN(c2cccc(C(F)(F)F)c2)CC1` (stereo not shown) [Example 74, 2-(3,5-Difluorophenyl)-N-{4-[4-(3-trifluoromethylphenyl)piperazin-1-carbonyl]-4,5,6,7-tetrahydrobenzthiazol-2-yl}acetamide] stands 82%.
On the same count and under the same terms, under `O=C(C=Cc1ccco1)Nc1nc2c(s1)CCCC2C(=O)N1CCN(c2cccc(C(F)(F)F)c2)CC1` (stereo not shown) [Example 76, 3-Furan-2-yl-N-{4-[4-(3-trifluoromethylphenyl)piperazin-1-carbonyl]-4,5,6,7-tetrahydrobenzthiazol-2-yl}acrylamide] stands 62%.
Same read-out and setting: under `CCOc1cc(N2CCOCC2)c(OCC)cc1NC(=O)C1CCCc2sc(NC(=O)CC(C)(C)C)nc21` (stereo not shown) [Example 80, 2-(3,3-Dimethylbutyrylamino)-4,5,6,7-tetrahydrobenzthiazol-4-carboxylic acid (2,5-diethoxy-4-morpholin-4-ylphenyl)amide] stands 52%.
Compound `O=C(Cc1cc(F)cc(F)c1)Nc1nc2c(s1)CCCC2C(=O)N1CCN(C(c2ccccc2)c2ccccc2)CC1` (stereo not shown) [Example 83, N-[4-(4-Benzhydrylpiperazin-1-carbonyl)-4,5,6,7-tetrahydrobenzthiazol-2-yl]-2-(3,5-difluorophenyl)acetamide] registered an inhibition at 10 µM in experiment [2] of 44%.
Still for that read-out and setting: under `O=C(Cc1cccs1)Nc1nc2c(s1)CCCC2C(=O)N1CCN(C(c2ccccc2)c2ccccc2)CC1` (stereo not shown) [Example 84, N-[4-(4-Benzhydrylpiperazin-1-carbonyl)-4,5,6,7-tetrahydrobenzthiazol-2-yl]-2-thiophen-2-ylacetamide] stands 53%.
On the same count and under the same terms, under `CCOc1ccccc1C(=O)Nc1nc2c(s1)CCCC2C(=O)N1CCN(c2ccccc2Cl)CC1` (stereo not shown) [Example 85, N-{4-[4-(2-Chlorophenyl)piperazin-1-carbonyl]-4,5,6,7-tetrahydrobenzthiazol-2-yl}-2-ethoxybenzamide] stands 48%; under `CC(C)(C)CC(=O)Nc1nc2c(s1)CCCC2C(=O)N1CCN(c2ccc(C(F)(F)F)cn2)CC1` (stereo not shown) [Example 86, 3,3-Dimethyl-N-{4-[4-(5-trifluoromethylpyridin-2-yl)piperazin-1-carbonyl]-4,5,6,7-tetrahydrobenzthiazol-2-yl}butyramide], 54%; under `O=C(CC1CCCCC1)Nc1nc2c(s1)CCCC2C(=O)N1CCN(C(c2ccccc2)c2ccccc2)CC1` (stereo not shown) [Example 88, N-[4-(4-Benzhydrylpiperazin-1-carbonyl)-4,5,6,7-tetrahydrobenzthiazol-2-yl]-2-cyclohexylacetamide], 41%.
